In brackets after ≈: the same amount, converted by molar mass. Like-named read-outs stand apart in the source and are kept apart here.
Columns and labels:
P. aeruginosa = experiment: Biofilm growth assay (spreading biofilm on semi-solid agar); assay type: cell-based; conditions: Pseudomonas aeruginosa, concentration that reduces the area of the spreading biofilm by >= 85%, read-out: P. aeruginosa
E. coli = experiment: as above; assay type: cell-based; conditions: Escherichia coli, concentration that reduces the area of the spreading biofilm by >= 85%, read-out: E. coli
Method in brief: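 Spreading (swarming) biofilm on semi-solid agar: E. coli on LB with 0.6% agar and 0.5% glucose; P. aeruginosa on M8 agar with 0.2% glucose, 100 µM CaCl2, 1 mM MgSO4, 0.5% Casamino acids. Compound in medium; 5 µL overnight culture spotted centrally, 37°C overnight. Value: concentration (µg/ml) giving ≥85% reduction in spread area versus negative control.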

CNc1ccc(C2=C3[C@@H]4CC(C)(C)CC[C@]4(C(=O)O)CC[C@@]3(C)[C@]3(C)CC[C@H]4C(C)(C)c5n[nH]c(N)c5C[C@]4(C)C3C2)cn1 (stereo partly drawn) [Compound 43, (4aS,6aS,6bR,8aR,13aR,15bS)-12-Amino-2,2,6a,6b,9,9,13a-heptamethyl-15-(6-(methylamino)pyridin-3-yl)-2,3,4,4a,5,6,6a,6b,7,8,8a,9,11,13,13a,13b,14,15b-octadecahydro-1H-chryseno[1,2-f]indazole-4a-carboxylic acid]
IC85 (P. aeruginosa; Table 3): 1 mg/L (≈ 1.67 µM)
IC85 (E. coli; Table 3): 1 mg/L (≈ 1.67 µM)

CN(C)c1ccc(C2=C3[C@@H]4CC(C)(C)CC[C@]4(C(=O)O)CC[C@@]3(C)[C@]3(C)CC[C@H]4C(C)(C)c5n[nH]c(N)c5C[C@]4(C)C3C2)cn1 (stereo partly drawn) [Compound 44, (4aS,6aS,6bR,8aR,13aR,15bS)-12-Amino-15-(6-(dimethylamino)pyridin-3-yl)-2,2,6a,6b,9,9,13a-heptamethyl-2,3,4,4a,5,6,6a,6b,7,8,8a,9,11,13,13a,13b,14,15b-octadecahydro-1H-chryseno[1,2-f]indazole-4a-carboxylic acid]
IC85 (P. aeruginosa; Table 3): 0.5 mg/L (≈ 0.814 µM)
IC85 (E. coli; Table 3): 2 mg/L (≈ 3.26 µM)

CC1(C)CC[C@]2(C(=O)O)CC[C@]3(C)C(=C(c4ccc(N5CCCC5)nc4)CC4[C@@]5(C)Cc6c(n[nH]c6N)C(C)(C)C5CC[C@]43C)C2C1 (stereo partly drawn) [Compound 45, (4aS,6aS,6bR,13aR)-12-Amino-2,2,6a,6b,9,9,13a-heptamethyl-15-(6-(pyrrolidin-1-yl)pyridin-3-yl)-2,3,4,4a,5,6,6a,6b,7,8,8a,9,11,13,13a,13b,14,15b-octadecahydro-1H-chryseno[1,2-f]indazole-4a-carboxylic acid]
IC85 (P. aeruginosa; Table 3): 0.5 mg/L (≈ 0.781 µM)
IC85 (E. coli; Table 3): 1 mg/L (≈ 1.56 µM)

CC1(C)CC[C@]2(C(=O)O)CC[C@]3(C)C(=C(c4cccc5cnccc45)CC4[C@@]5(C)Cc6c(n[nH]c6N)C(C)(C)C5CC[C@]43C)C2C1 (stereo partly drawn) [Compound 46, (4aS,6aS,6bR,13aR)-12-Amino-15-(isoquinolin-5-yl)-2,2,6a,6b,9,9,13a-heptamethyl-2,3,4,4a,5,6,6a,6b,7,8,8a,9,11,13,13a,13b,14,15b-octadecahydro-1H-chryseno[1,2-f]indazole-4a-carboxylic acid]
IC85 (P. aeruginosa; Table 3): 0.5 mg/L (≈ 0.805 µM)
IC85 (E. coli; Table 3): 1 mg/L (≈ 1.61 µM)

CC1(C)CC[C@]2(C(=O)O)CC[C@]3(C)C(=C(c4cccc5c4CCNC5)CC4[C@@]5(C)Cc6c(n[nH]c6N)C(C)(C)C5CC[C@]43C)C2C1 (stereo partly drawn) [Compound 47, (4aS,6aS,6bR,13aR)-12-Amino-2,2,6a,6b,9,9,13a-heptamethyl-15-(1,2,3,4-tetrahydroisoquinolin-5-yl)-2,3,4,4a,5,6,6a,6b,7,8,8a,9,11,13,13a,13b,14,15b-octadecahydro-1H-chryseno[1,2-f]indazole-4a-carboxylic acid]
IC85 (P. aeruginosa; Table 3): 0.5 mg/L (≈ 0.8 µM)
IC85 (E. coli; Table 3): 1 mg/L (≈ 1.6 µM)

CC1(C)CC[C@]2(C(=O)O)CC[C@]3(C)C(=C(c4cccc5[nH]ccc45)CC4[C@@]5(C)Cc6c(n[nH]c6N)C(C)(C)C5CC[C@]43C)C2C1 (stereo partly drawn) [Compound 48, (4aS,6aS,6bR,13aR)-12-Amino-15-(1H-indol-4-yl)-2,2,6a,6b,9,9,13a-heptamethyl-2,3,4,4a,5,6,6a,6b,7,8,8a,9,11,13,13a,13b,14,15b-octadecahydro-1H-chryseno[1,2-f]indazole-4a-carboxylic acid]
IC85 (P. aeruginosa; Table 3): 0.5 mg/L (≈ 0.821 µM)
IC85 (E. coli; Table 3): 1 mg/L (≈ 1.64 µM)

CC1(C)CC[C@]2(C(=O)O)CC[C@]3(C)C(=C(c4ccc5[nH]ccc5c4)CC4[C@@]5(C)Cc6c(n[nH]c6N)C(C)(C)C5CC[C@]43C)C2C1 (stereo partly drawn) [Compound 49, (4aS,6aS,6bR,13aR)-12-Amino-15-(1H-indol-5-yl)-2,2,6a,6b,9,9,13a-heptamethyl-2,3,4,4a,5,6,6a,6b,7,8,8a,9,11,13,13a,13b,14,15b-octadecahydro-1H-chryseno[1,2-f]indazole-4a-carboxylic acid]
IC85 (P. aeruginosa; Table 3): 0.5 mg/L (≈ 0.821 µM)
IC85 (E. coli; Table 3): > 1 mg/L

CC1(C)CC[C@]2(C(=O)O)CC[C@]3(C)C(=C(c4ccc(N5CCNCC5)cc4)CC4[C@@]5(C)Cc6c(n[nH]c6N)C(C)(C)C5CC[C@]43C)C2C1 (stereo partly drawn) [Compound 50, (4aS,6aS,6bR,13aR)-12-Amino-2,2,6a,6b,9,9,13a-heptamethyl-15-(4-(piperazin-1-yl)phenyl)-2,3,4,4a,5,6,6a,6b,7,8,8a,9,11,13,13a,13b,14,15b-octadecahydro-1H-chryseno[1,2-f]indazole-4a-carboxylic acid]
IC85 (P. aeruginosa; Table 3): 2 mg/L (≈ 3.06 µM)
IC85 (E. coli; Table 3): 1 mg/L (≈ 1.53 µM)

CC1(C)CC[C@]2(C(=O)O)CC[C@]3(C)C(=C(c4ccc(N5CCOCC5)cc4)CC4[C@@]5(C)Cc6c(n[nH]c6N)C(C)(C)C5CC[C@]43C)C2C1 (stereo partly drawn) [Compound 51, (4aS,6aS,6bR,13aR)-12-Amino-2,2,6a,6b,9,9,13a-heptamethyl-15-(4-morpholinophenyl)-2,3,4,4a,5,6,6a,6b,7,8,8a,9,11,13,13a,13b,14,15b-octadecahydro-1H-chryseno[1,2-f]indazole-4a-carboxylic acid]
IC85 (P. aeruginosa; Table 3): 0.5 mg/L (≈ 0.763 µM)
IC85 (E. coli; Table 3): 2 mg/L (≈ 3.05 µM)

CC1(C)CC[C@]2(C(=O)O)CC[C@]3(C)C(=C(c4ccc(CN5CCOCC5)cc4)CC4[C@@]5(C)Cc6c(n[nH]c6N)C(C)(C)C5CC[C@]43C)C2C1 (stereo partly drawn) [Compound 52, (4aS,6aS,6bR,13aR)-12-Amino-2,2,6a,6b,9,9,13a-heptamethyl-15-(4-(morpholinomethyl)phenyl)-2,3,4,4a,5,6,6a,6b,7,8,8a,9,11,13,13a,13b,14,15b-octadecahydro-1H-chryseno[1,2-f]indazole-4a-carboxylic acid]
IC85 (P. aeruginosa; Table 3): 1 mg/L (≈ 1.49 µM)
IC85 (E. coli; Table 3): 2 mg/L (≈ 2.99 µM)

CN1CCN(c2ccc(C3=C4C5CC(C)(C)CC[C@]5(C(=O)O)CC[C@@]4(C)[C@]4(C)CCC5C(C)(C)c6n[nH]c(N)c6C[C@]5(C)C4C3)cc2)CC1 (stereo partly drawn) [Compound 53, (4aS,6aS,6bR,13aR)-12-Amino-2,2,6a,6b,9,9,13a-heptamethyl-15-(4-(4-methylpiperazin-1-yl)phenyl)-2,3,4,4a,5,6,6a,6b,7,8,8a,9,11,13,13a,13b,14,15b-octadecahydro-1H-chryseno[1,2-f]indazole-4a-carboxylic acid]
IC85 (P. aeruginosa; Table 3): 0.5 mg/L (≈ 0.749 µM)
IC85 (E. coli; Table 3): 2 mg/L (≈ 2.99 µM)

CC1(C)CC[C@]2(C(=O)O)CC[C@]3(C)C(=C(c4ccc(N5CCOCC5)nc4)CC4[C@@]5(C)Cc6c(n[nH]c6N)C(C)(C)[C@@H]5CC[C@]43C)[C@@H]2C1 (stereo partly drawn) [Compound 54, (4aS,6aS,6bR,8aR,13aR,15bS)-12-Amino-2,2,6a,6b,9,9,13a-heptamethyl-15-(6-morpholinopyridin-3-yl)-2,3,4,4a,5,6,6a,6b,7,8,8a,9,11,13,13a,13b,14,15b-octadecahydro-1H-chryseno[1,2-f]indazole-4a-carboxylic acid]
IC85 (P. aeruginosa; Table 3): 1 mg/L (≈ 1.52 µM)
IC85 (E. coli; Table 3): 2 mg/L (≈ 3.05 µM)

CC1(C)CC[C@]2(C(=O)O)CC[C@]3(C)C(=C(c4ccc(N5CCNCC5)nc4)CC4[C@@]5(C)Cc6c(n[nH]c6N)C(C)(C)C5CC[C@]43C)C2C1 (stereo partly drawn) [Compound 55, (4aS,6aS,6bR,13aR)-12-Amino-2,2,6a,6b,9,9,13a-heptamethyl-15-(6-(piperazin-1-yl)pyridin-3-yl)-2,3,4,4a,5,6,6a,6b,7,8,8a,9,11,13,13a,13b,14,15b-octadecahydro-1H-chryseno[1,2-f]indazole-4a-carboxylic acid]
IC85 (P. aeruginosa; Table 3): > 1 mg/L
IC85 (E. coli; Table 3): 2 mg/L (≈ 3.05 µM)

CN1CCN(c2ccc(C3=C4C5CC(C)(C)CC[C@]5(C(=O)O)CC[C@@]4(C)[C@]4(C)CCC5C(C)(C)c6n[nH]c(N)c6C[C@]5(C)C4C3)cn2)CC1 (stereo partly drawn) [Compound 56, (4aS,6aS,6bR,13aR)-12-Amino-2,2,6a,6b,9,9,13a-heptamethyl-15-(6-(4-methylpiperazin-1-yl)pyridin-3-yl)-2,3,4,4a,5,6,6a,6b,7,8,8a,9,11,13,13a,13b,14,15b-octadecahydro-1H-chryseno[1,2-f]indazole-4a-carboxylic acid]
IC85 (P. aeruginosa; Table 3): 1 mg/L (≈ 1.49 µM)
IC85 (E. coli; Table 3): 2 mg/L (≈ 2.99 µM)

CC1(C)CC[C@]2(C(=O)O)CC[C@]3(C)C(=C(c4ccc(N5CCC(N)CC5)nc4)CC4[C@@]5(C)Cc6c(n[nH]c6N)C(C)(C)C5CC[C@]43C)C2C1 (stereo partly drawn) [Compound 57, (4aS,6aS,6bR,13aR)-12-Amino-15-(6-(4-aminopiperidin-1-yl)pyridin-3-yl)-2,2,6a,6b,9,9,13a-heptamethyl-2,3,4,4a,5,6,6a,6b,7,8,8a,9,11,13,13a,13b,14,15b-octadecahydro-1H-chryseno[1,2-f]indazole-4a-carboxylic acid]
IC85 (P. aeruginosa; Table 3): > 2 mg/L
IC85 (E. coli; Table 3): 1 mg/L (≈ 1.49 µM)

CC1(C)CC[C@]2(C(=O)O)CC[C@]3(C)C(=C(c4ccc(N5CCC(N)C5)nc4)CC4[C@@]5(C)Cc6c(n[nH]c6N)C(C)(C)C5CC[C@]43C)C2C1 (stereo partly drawn) [Compound 58, (4aS,6aS,6bR,13aR)-12-Amino-15-(6-(3-aminopyrrolidin-1-yl)pyridin-3-yl)-2,2,6a,6b,9,9,13a-heptamethyl-2,3,4,4a,5,6,6a,6b,7,8,8a,9,11,13,13a,13b,14,15b-octadecahydro-1H-chryseno[1,2-f]indazole-4a-carboxylic acid]
IC85 (P. aeruginosa; Table 3): 1 mg/L (≈ 1.53 µM)
IC85 (E. coli; Table 3): 2 mg/L (≈ 3.05 µM)

CC1(C)CC[C@]2(C(=O)O)CC[C@]3(C)C(=C(c4ccccc4CN4CCOCC4)CC4[C@@]5(C)Cc6c(n[nH]c6N)C(C)(C)[C@@H]5CC[C@]43C)[C@@H]2C1 (stereo partly drawn) [Compound 59, (4aS,6aS,6bR,8aR,13aR,15bS)-12-Amino-2,2,6a,6b,9,9,13a-heptamethyl-15-(2-(morpholinomethyl)phenyl)-2,3,4,4a,5,6,6a,6b,7,8,8a,9,11,13,13a,13b,14,15b-octadecahydro-1H-chryseno[1,2-f]indazole-4a-carboxylic acid]
IC85 (P. aeruginosa; Table 3): 0.5 mg/L (≈ 0.747 µM)
IC85 (E. coli; Table 3): > 1 mg/L

CC1(C)CC[C@]2(c3cc(N)[nH]n3)CC[C@]3(C)C(=CCC4[C@@]5(C)Cc6c(n[nH]c6N)C(C)(C)C5CC[C@]43C)C2C1 (stereo partly drawn) [Compound 60, (4aS,6aS,6bR,13aR)-4a-(5-Amino-1 H-pyrazol-3-yl)-2,2,6a,6b,9,9,13a-heptamethyl-2,3,4,4a,5,6,6a,6b,7,8,8a,9,11,13,13a,13b,14,15b-octadecahydro-1H-chryseno[1,2-f]indazol-12-amine]
IC85 (P. aeruginosa; Table 4): 0.5 mg/L (≈ 0.942 µM)
IC85 (E. coli; Table 4): 1 mg/L (≈ 1.88 µM)
